From patent publication US20150125509A1, “TREATMENT OF FISH POPULATIONS WITH LUFENURON” (priority 2012, published 2015)

Tests used:
sea louse = settings: injectable, WO99/063824; cited from earlier work
L. salmonis = test: Example 2: in-feed treatment in fresh water hatchery, natural sea louse infestation after sea transfer, L. salmonis counts; assay type: in vivo, Lepeophtheirus salmonis on Atlantic salmon (Salmo salar); settings: for L. salmonis: all stages, Treated, counts / L. salmonis: pre- & adults, Efficacy / L. salmonis: pre- & adults, Treated, counts: fresh water
Method: Three groups of 400 Atlantic salmon (Salmo salar) of average weight 80 g were treated with medicated pellets containing lufenuron to deliver doses equivalent to 1, 5 and 10 mg/kg/day over 7 consecutive days. A fourth group containing 400 salmon of average weight 80 g was added to the study as a non-treated control group. The medicated pellets were prepared by coating commercially available fish feed pellets with a lufenuron-containing pre-mix to reach a content of 0.005, 0.025 and 0.05% (w/w) lufenuron in the fish feed. The groups were randomized and the identity of the feeds blinded to the site staff. The treatment was undertaken in a fresh water hatchery and the fish transferred to sea water within 7 days of completion of treatment.
On transfer to sea each group was split into two cages and all cage groups were maintained in separate randomized cages.
After treatment, the fish were exposed to natural sea louse infestation. During the study the temperature varied between 1.9 and 8.1° C. Fish weights were assessed at allocation to cages, again approximately 2 weeks after the sea transfer and then at 4 weekly intervals. Sea louse numbers were assessed at approximately 2 weeks after the sea transfer and then at 4 weekly intervals. The numbers of chalimus, pre-adults and adult male, mobile and mature female L. salmonis were recorded for each fish. No distinction was made between chalimus stages I-IV or between pre-adult and adult male stages. Total numbers of Caligus elongatus were also recorded but no significant infestation was established to enable an assessment of efficacy.
Efficacy was calculated using the formula:
% Efficacy=100−(100×mean of treatment group/mean of control).

[1] = 1 mg/kg/day 7 days in-feed, 15 days post sea transfer
[2] = 1 mg/kg/day 7 days in-feed, 42 days post sea transfer
[3] = 1 mg/kg/day 7 days in-feed, 76 days post sea transfer
[4] = 1 mg/kg/day 7 days in-feed, 98 days post sea transfer
[5] = 1 mg/kg/day 7 days in-feed, 125 days post sea transfer
[6] = 1 mg/kg/day 7 days in-feed, 154 days post sea transfer
[7] = 5 mg/kg/day 7 days in-feed, 15 days post sea transfer
[8] = 5 mg/kg/day 7 days in-feed, 76 days post sea transfer
[9] = 5 mg/kg/day 7 days in-feed, 98 days post sea transfer
[10] = 5 mg/kg/day 7 days in-feed, 125 days post sea transfer
[11] = 5 mg/kg/day 7 days in-feed, 154 days post sea transfer
[12] = 10 mg/kg/day 7 days in-feed, 15 days post sea transfer
[13] = 10 mg/kg/day 7 days in-feed, 76 days post sea transfer
[14] = 10 mg/kg/day 7 days in-feed, 98 days post sea transfer
[15] = 10 mg/kg/day 7 days in-feed, 125 days post sea transfer
[16] = 10 mg/kg/day 7 days in-feed, 154 days post sea transfer

O=C(NC(=O)c1c(F)cccc1F)Nc1cc(Cl)c(OC(F)(F)C(F)C(F)(F)F)cc1Cl (centres unmarked) [lufenuron, N-{[2,5-Dichlor-4-(1,1,2,3,3,3-hexafluorpropoxy)phenyl]carbamoyl}-2,6-difluorbenzamid]
five: protected the fish against sea louse infestation until at least (time post-treatment) (L. salmonis; Example 2, 1 mg/kg treatment)
0: L. salmonis: all stages, Treated, counts (L. salmonis; [1]) | L. salmonis: pre- & adults, Treated, counts (L. salmonis; [1]) | L. salmonis: all stages, Treated, counts (L. salmonis; [2]) | L. salmonis: pre- & adults, Treated, counts (L. salmonis; [2]) | L. salmonis: pre- & adults, Treated, counts (L. salmonis; [7]) | L. salmonis: all stages, Treated, counts (L. salmonis; [8]) | L. salmonis: pre- & adults, Treated, counts (L. salmonis; [8]) | L. salmonis: all stages, Treated, counts (L. salmonis; [10]) | L. salmonis: pre- & adults, Treated, counts (L. salmonis; [10]) | L. salmonis: all stages, Treated, counts (L. salmonis; [11]) | L. salmonis: pre- & adults, Treated, counts (L. salmonis; [11]) | L. salmonis: pre- & adults, Treated, counts (L. salmonis; [12]) | L. salmonis: all stages, Treated, counts (L. salmonis; [13]) | L. salmonis: pre- & adults, Treated, counts (L. salmonis; [13]) | L. salmonis: all stages, Treated, counts (L. salmonis; [14]) | L. salmonis: pre- & adults, Treated, counts (L. salmonis; [14]) | L. salmonis: all stages, Treated, counts (L. salmonis; [15]) | L. salmonis: pre- & adults, Treated, counts (L. salmonis; [15]) | L. salmonis: all stages, Treated, counts (L. salmonis; [16]) | L. salmonis: pre- & adults, Treated, counts (L. salmonis; [16])
128 days: protection against sea louse infestation after injection (sea louse)
0.1: L. salmonis: all stages, Treated, counts (L. salmonis; [3]) | L. salmonis: pre- & adults, Treated, counts (L. salmonis; [3]) | L. salmonis: all stages, Treated, counts (L. salmonis; [7]) | L. salmonis: all stages, Treated, counts (L. salmonis; [9]) | L. salmonis: pre- & adults, Treated, counts (L. salmonis; [9])
92.8%: L. salmonis: pre- & adults, Efficacy (L. salmonis; [6])
92.9%: L. salmonis: pre- & adults, Efficacy (L. salmonis; [5])
96.4%: L. salmonis: pre- & adults, Efficacy (L. salmonis; [9])
0.8: L. salmonis: all stages, Treated, counts (L. salmonis; [4])
100%: L. salmonis: pre- & adults, Efficacy (L. salmonis; [1]) | L. salmonis: pre- & adults, Efficacy (L. salmonis; [2]) | L. salmonis: pre- & adults, Efficacy (L. salmonis; [7]) | L. salmonis: pre- & adults, Efficacy (L. salmonis; [8]) | L. salmonis: pre- & adults, Efficacy (L. salmonis; [10]) | L. salmonis: pre- & adults, Efficacy (L. salmonis; [11]) | L. salmonis: pre- & adults, Efficacy (L. salmonis; [12]) | L. salmonis: pre- & adults, Efficacy (L. salmonis; [13]) | L. salmonis: pre- & adults, Efficacy (L. salmonis; [14]) | L. salmonis: pre- & adults, Efficacy (L. salmonis; [15]) | L. salmonis: pre- & adults, Efficacy (L. salmonis; [16])
0.3: L. salmonis: pre- & adults, Treated, counts (L. salmonis; [5]) | L. salmonis: all stages, Treated, counts (L. salmonis; [6]) | L. salmonis: pre- & adults, Treated, counts (L. salmonis; [6])
0.45: L. salmonis: pre- & adults, Treated, counts (L. salmonis; [4])
83.9%: L. salmonis: pre- & adults, Efficacy (L. salmonis; [4])
96.2%: L. salmonis: pre- & adults, Efficacy (L. salmonis; [3])
0.5: L. salmonis: all stages, Treated, counts (L. salmonis; [12])
5 months: protected the fish against sea louse infestation until (time post-treatment) (L. salmonis; Example 2, 5 mg/kg treatment, study continues) | protected the fish against sea louse infestation up to (time post-treatment) (L. salmonis; Example 2, 10 mg/kg treatment, study continues)
approximately 90%: efficacy over the protection period (L. salmonis; Example 2, 1 mg/kg treatment, until at least five month post-treatment)
0.4: L. salmonis: all stages, Treated, counts (L. salmonis; [5])
